Source: patent US20020035061A1, “COMPOSITIONS AND METHODS FOR TREATING INFECTIONS USING CATIONIC PEPTIDES ALONE OR IN COMBINATION WITH ANTIBIOTICS” (priority 1996, published 2002)
Where two headings read alike, the source gives them in different places. Peptide text beside a SMILES is read from it.

Key:
bacterial isolates = assay: microbe, parasite or virus in culture; type: cell-based; details: for FIC: peptide + Ciprofloxacin
[1] = test system: microorganisms with acquired resistance; assay: microbe, parasite or virus in culture; type: cell-based; details: for Peptide MIC Alone: Ciprofloxacin section
S. aureus [2] = assay: microbe, parasite or virus in culture; type: cell-based
E. coli = type: cell-based; details: for Peptide MIC values: agarose dilution
K. pneumoniae = type: cell-based
E. faecalis = type: cell-based
P. aeruginosa = type: cell-based; details: for MIC: P. aeruginosa strain PA005; for Peptide MIC values: agarose dilution
S. epidermidis = type: cell-based
S. maltophilia = type: cell-based
A. calcoaceticus = type: cell-based; details: A. calcoaceticus strain AC001
E. faecium = type: cell-based
E. cloacae = type: cell-based; details: E. cloacae strain ECL007
S. marcescens = type: cell-based
[3] = test system: MSSA (Smith, ATCC # 19640); assay: In vivo efficacy, MSSA infection; set-up: species or system S. aureus; details: formulation D, 60 min post-infection, end of eight day observation
S. aureus [4] = type: cell-based; details: for Peptide MIC values: agarose dilution
S. pneumoniae = assay: Agarose dilution assay (MIC); type: cell-based; details: agarose dilution

## CC[C@H](C)[C@H](NC(=O)[C@H](CC(C)C)NC(=O)[C@H](C)NC(=O)[C@@H]1CCCN1C(=O)[C@H](CC(C)C)NC(=O)[C@H](C)NC(=O)[C@@H](NC(=O)[C@@H](NC(=O)[C@@H](NC(=O)[C@@H](NC(=O)[C@H](CCCCN)NC(=O)[C@H](CCCCN)NC(=O)[C@H](CC(C)C)NC(=O)[C@@H](NC(=O)[C@H](CCCCN)NC(=O)[C@@H](NC(=O)[C@H](CC(C)C)NC(=O)[C@H](CC(N)=O)NC(=O)[C@H](CCCCN)NC(=O)[C@@H](NC(=O)[C@H](Cc1ccccc1)NC(=O)[C@H](CO)NC(=O)[C@H](CCCCN)NC(=O)[C@H](Cc1c[nH]c2ccccc12)NC(=O)[C@@H](N)CCCCN)[C@@H](C)CC)[C@@H](C)O)C(C)C)C(C)C)C(C)C)[C@@H](C)O)[C@@H](C)O)C(=O)N[C@@H](CO)C(=O)O [MBI 29A2] (H-KWKSFIKNLTKVLKKVVTTALPALIS-OH; N-terminus and C-terminus assumed)
Bacterial isolates; P. aeruginosa PA24
  Ciprofloxacin MIC + Peptide: 16 µg/mL
  Peptide MIC + Ciprofloxacin: 8 µg/mL
  FIC: 0.63
Bacterial isolates; S. aureus SA10
  Ciprofloxacin MIC + Peptide: 0.5 µg/mL
  Peptide MIC + Ciprofloxacin: 2 µg/mL
  FIC: 0.52
Bacterial isolates; S. aureus SA93
  Ciprofloxacin MIC + Peptide: 8 µg/mL
  Peptide MIC + Ciprofloxacin: 0.5 µg/mL
  FIC: 0.50
[1]; P. aeruginosa PA41
  Ciprofloxacin MIC + Peptide: 2 µg/mL
  Peptide MIC + Ciprofloxacin: 4 µg/mL
  Peptide MIC Alone: 8 µg/mL
[1]; P. aeruginosa PA77
  Ciprofloxacin MIC + Peptide: 1 µg/mL
  Peptide MIC + Ciprofloxacin: 8 µg/mL
  Peptide MIC Alone: 16 µg/mL
S. aureus [2]; S. aureus SA10
  Ciprofloxacin MIC + Peptide: 0.5 µg/mL
  Peptide MIC + Ciprofloxacin: 2 µg/mL
S. aureus [2]; S. aureus SA25
  Ciprofloxacin MIC + Peptide: 0.5 µg/mL
  Peptide MIC + Ciprofloxacin: 1 µg/mL

## ILRRWPWWPWRRK [MBI 11B1CN]
E. coli; E. coli strain ECO003
  MIC: 8 µg/mL
K. pneumoniae; K. pneumoniae strain KP002
  MIC: 64 µg/mL
E. faecalis; E. faecalis strain EFS004
  MIC: 8 µg/mL
P. aeruginosa
  MIC: >128 µg/mL
S. epidermidis; S. epidermidis strain SE001
  MIC: 2 µg/mL
S. maltophilia; S. maltophilia strain SMA001
  MIC: 64 µg/mL
A. calcoaceticus
  MIC: 32 µg/mL
E. faecium; E. faecium strain EFM002
  MIC: 2 µg/mL
E. cloacae
  MIC: >128 µg/mL
S. marcescens; S. marcescens strain SMS004
  MIC: >128 µg/mL
[3]; 12 mg/kg ip
  % Survival: 0%
[3]; 18 mg/kg ip
  % Survival: 30%
[3]; 24 mg/kg ip
  % Survival: 90%
S. aureus [4]; S. aureus strain SA005
  MIC: 2 µg/mL

## ILWPWWPWRRK [MBI 11B8CN]
E. coli; E. coli strain ECO002
  MIC: 16 µg/mL
E. coli; E. coli ATCC 25922
  Peptide MIC values: 32 µg/mL
E. coli; E. coli NCTC 10418
  Peptide MIC values: 4 µg/mL
K. pneumoniae; K. pneumoniae strain KP001
  MIC: >128 µg/mL
E. faecalis; E. faecalis strain EFS002
  MIC: 32 µg/mL
P. aeruginosa
  MIC: >128 µg/mL
P. aeruginosa; P. aeruginosa ATCC 27853
  Peptide MIC values: >128 µg/mL
P. aeruginosa; P. aeruginosa NCTC 10662
  Peptide MIC values: >128 µg/mL
S. epidermidis; S. epidermidis strain SE002
  MIC: 4 µg/mL
S. maltophilia; S. maltophilia strain SMA002
  MIC: 128 µg/mL
A. calcoaceticus
  MIC: >128 µg/mL
E. faecium; E. faecium strain EFM001
  MIC: 16 µg/mL
E. faecium; agarose dilution
  Peptide MIC values: 8 µg/mL
E. cloacae
  MIC: >128 µg/mL
S. marcescens; S. marcescens strain SMS003
  MIC: >128 µg/mL
S. marcescens; agarose dilution, S. marcescens SM82
  Peptide MIC values: >128 µg/mL
[3]; 12 mg/kg ip
  % Survival: 0%
[3]; 18 mg/kg ip
  % Survival: 10%
S. pneumoniae; S. pneumoniae 406LE8
  Peptide MIC values: >128 µg/mL
S. pneumoniae; S. pneumoniae 60120
  Peptide MIC values: >128 µg/mL
S. pneumoniae; S. pneumoniae ATCC 49619
  Peptide MIC values: 128 µg/mL
S. aureus [4]; S. aureus strain SA009
  MIC: 4 µg/mL
S. aureus [4]; S. aureus MRSA9
  Peptide MIC values: 2 µg/mL
S. aureus [4]; S. aureus MRSA13
  Peptide MIC values: 32 µg/mL
S. aureus [4]; S. aureus MRSA17
  Peptide MIC values: 4 µg/mL
